Results reported in patent US20260167615A1, “COMPOUNDS AND COMPOSITIONS AS GPR52 MODULATORS” (Neurocrine Biosciences, Inc., priority 2022, published 2026).
Read-outs that look alike come from different tables or passages of the source.

Target: recombinant human GPR52 (Homo sapiens, UniProt Q9Y2T5)
Assay: HTRF cAMP assay, GPR52 activity (Example A)
Assay type: cell-based
Settings: for Emax: maximum cAMP at 10 μM or 31.6 μM test compound, as percentage of Emax of control compound 4-(3-(3-fluoro-5-(trifluoromethyl)benzyl)-5-methyl-4,5-dihydro-1H-1,2,4-triazol-1-yl)-2-methylbenzamide
Method: Compounds of Formula I were assessed for their ability to modulate GPR52 activity. HTRF CAMP assays were performed using a commercially available assay kit (CAMP Gs HiRange HTRF®, CisBio). Controls and compounds were solubilized in DMSO and 62.5 nanoliters of the diluted compounds were transferred into 384-well NBS assay plates via acoustic or precision low-volume dispensing. Compounds were further diluted to 1× with the addition of 20,000 cells per well. Flp-In™—CHO cells that stably express recombinant human GPR52 were used in the assay.
Cells were harvested with cell stripper and resuspended in stimulation buffer. After thirty minutes incubation at room temperature, detection reagents were added to each well. Plates were then incubated for an additional 30 minutes at room temperature. CAMP produced by the cells during the first incubation period competes with d2-labeled CAMP for binding to an anti-cAMP monoclonal antibody labeled with europium cryptate. The measured signal was inversely proportional to the concentration of cAMP produced by the cells and this signal was quantified using a PHERAstar® multi-mode plate reader.
Dose-response curves were generated from the HTRF counts that have been transformed based on a CAMP referenced curve, and then normalized to the positive control. EC50 values were obtained using a nonlinear regression curve-fitting program. […] The Emax (Table 13) is the maximum amount of cAMP (nM) produced by incubation of the cells with 10 μM or 31.6 μM of a test compound. The compound is defined by the top plateau of the sigmoid curve fit. The curve is then normalized to a control compound, in this case 4-(3-(3-fluoro-5-(trifluoromethyl)benzyl)-5-methyl-4,5-dihydro-1H-1,2,4-triazol-1-yl)-2-methylbenzamide (Tokumaru, K., et al., “Design, synthesis, and pharmacological evaluation of 4-azolyl-benzamide derivatives as novel GPR52 agonists”, Bioorganic & Medicinal Chemistry, Volume 25, Issue 12, June 2017, pages 3098-3115), and expressed as a percentage of the Emax of that control compound.

[1] = average EC50 (n=1 to 15), Flp-In-CHO cells stably expressing recombinant human GPR52, cAMP HTRF, read-out: EC50 (N=)

recombinant human GPR52, sequence (Q9Y2T5 whole entry): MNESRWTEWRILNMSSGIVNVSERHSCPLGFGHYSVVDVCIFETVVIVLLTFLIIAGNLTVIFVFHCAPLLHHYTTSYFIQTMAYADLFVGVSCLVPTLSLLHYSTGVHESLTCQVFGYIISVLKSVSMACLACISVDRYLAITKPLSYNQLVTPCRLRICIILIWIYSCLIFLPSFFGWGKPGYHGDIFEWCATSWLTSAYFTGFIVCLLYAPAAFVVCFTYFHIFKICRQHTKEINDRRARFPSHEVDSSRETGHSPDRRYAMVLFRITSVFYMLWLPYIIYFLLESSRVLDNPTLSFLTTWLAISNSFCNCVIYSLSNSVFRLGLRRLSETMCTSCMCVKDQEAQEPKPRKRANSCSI

Compound | EC50 [1] | Emax | EC50 (Flp-In-CHO cells expressing human GPR52, read-out: average EC50)
CCc1cc(-c2cc(Oc3ccc4nccnc4c3)ccn2)ccc1C(N)=O [Example 125, 2-ethyl-4-(4-(quinoxalin-6-yloxy)pyridin-2-yl)benzamide] | 101 to 1000 nM | 90% | –
Cc1cc(-c2cc(Oc3cnc4cnn(C)c4c3)ccn2)ccc1C(N)=O [Example 12, 2-methyl-4-(4-((1-methyl-1H-pyrazolo[4,3-b]pyridin-6-yl)oxy)pyridin-2-yl)benzamide] | 101 to 1000 nM | 103% | –
Cc1cc(-c2cc(Oc3ccc4c(C)nn(C)c4c3)ccn2)ccc1C(N)=O [Example 25, 4-(4-((1,3-dimethyl-1H-indazol-6-yl)oxy)pyridin-2-yl)-2-methylbenzamide] | 25 to 100 nM | 103% | 83 nM
Cc1cc(-c2cc(Oc3ccc4ccoc4c3)ccn2)ccc1C(N)=O [Example 87, 4-(4-(benzofuran-6-yloxy)pyridin-2-yl)-2-methylbenzamide] | 101 to 1000 nM | 68% | –
CCc1cc(-c2cccc(Oc3ccc4cnn(C)c4c3)c2)ccc1C(N)=O [Example 52, 3-ethyl-3′-((1-methyl-1H-indazol-6-yl)oxy)-[1,1′-biphenyl]-4-carboxamide] | 1000 to 2000 nM | 86% | –
Cc1cc(-c2cc(Oc3ccc4ncncc4c3)ccn2)ccc1C(N)=O [Example 124, 2-methyl-4-(4-(quinazolin-6-yloxy)pyridin-2-yl)benzamide] | 1000 to 2000 nM | 100% | –
Cc1cc(-c2cncc(Oc3ccc4cnn(C)c4c3)n2)ccc1C(N)=O [Example 11, 2-methyl-4-(6-((1-methyl-1H-indazol-6-yl)oxy)pyrazin-2-yl)benzamide] | 101 to 1000 nM | 101% | –
CCc1cc(-c2cc(Oc3cnc4c(c3)CCCO4)ccn2)ccc1C(N)=O [Example 123, 4-(4-((3,4-dihydro-2H-pyrano[2,3-b]pyridin-6-yl)oxy)pyridin-2-yl)-2-ethylbenzamide] | 101 to 1000 nM | 88% | –
Cc1cc(-c2cc(Oc3ccc4cnn(C)c4c3)cc(N)n2)ccc1C(N)=O [Example 21, 4-(6-amino-4-((1-methyl-1H-indazol-6-yl)oxy)pyridin-2-yl)-2-methylbenzamide] | 101 to 1000 nM | 99% | –
Cc1cc(-c2cc(Oc3ccc4c(cnn4C)c3)ccn2)ccc1C(N)=O [Example 5, 2-methyl-4-(4-((1-methyl-1H-indazol-5-yl)oxy)pyridin-2-yl)benzamide] | 101 to 1000 nM | 76% | –
Cc1cc(-c2cc(Oc3ccc4ncc(F)cc4c3)ccn2)ccc1C(N)=O [Example 96, 4-(4-((3-fluoroquinolin-6-yl)oxy)pyridin-2-yl)-2-methylbenzamide] | 101 to 1000 nM | 120% | –
CCc1cc(-c2cc(Oc3cnc4ccc(F)cc4c3)ccn2)ccc1C(N)=O [Example 104, 2-ethyl-4-(4-((6-fluoroquinolin-3-yl)oxy)pyridin-2-yl)benzamide] | 101 to 1000 nM | 110% | –
CCc1cc(-c2cc(Oc3cnc4c(C)nn(C)c4c3)ccn2)ccc1C(=O)NC [Example 60, 4-(4-((1,3-dimethyl-1H-pyrazolo[4,3-b]pyridin-6-yl)oxy)pyridin-2-yl)-2-ethyl-N-methylbenzamide] | 101 to 1000 nM | 102% | –
Cn1ncc2ccc(Oc3ccnc(-c4ccc(C(N)=O)c(Cl)c4)c3)cc21 [Example 45, 2-chloro-4-(4-((1-methyl-1H-indazol-6-yl)oxy)pyridin-2-yl)benzamide] | 101 to 1000 nM | 88% | –
CCc1cc(-c2cc(Oc3cnc4c(c3)c(C(F)(F)F)nn4C)ccn2)ccc1C(N)=O [Example 56, 2-ethyl-4-(4-((1-methyl-3-(trifluoromethyl)-1H-pyrazolo[3,4-b]pyridin-5-yl)oxy)pyridin-2-yl)benzamide] | 25 to 100 nM | 100% | –
Cc1cc(-c2nccc(Oc3ccc4cnn(C)c4c3)n2)ccc1C(N)=O [Example 14, 2-methyl-4-(4-((1-methyl-1H-indazol-6-yl)oxy)pyrimidin-2-yl)benzamide] | 101 to 1000 nM | 93% | –
Cc1cc(-c2cc(Oc3ccc4c(c3)c(F)nn4C)ccn2)ccc1C(N)=O [Example 129, 4-(4-((3-fluoro-1-methyl-1H-indazol-5-yl)oxy)pyridin-2-yl)-2-methylbenzamide] | 101 to 1000 nM | 126% | –

Compound | EC50 [1] | Emax | EC50 (Flp-In-CHO cells expressing human GPR52, read-out: average EC50)
Cc1cnc(-c2ccc(C(N)=O)c(C)c2)cc1Oc1ccc2cnn(C)c2c1 [Example 50, 2-methyl-4-(5-methyl-4-((1-methyl-1H-indazol-6-yl)oxy)pyridin-2-yl)benzamide] | 101 to 1000 nM | 78% | –
CCc1cc(-c2cc(Oc3cnc4ccc(Cl)cc4c3)ccn2)ccc1C(N)=O [Example 110, 4-(4-((6-chloroquinolin-3-yl)oxy)pyridin-2-yl)-2-ethylbenzamide] | 101 to 1000 nM | 137% | –
Cc1cc(-c2cc(Oc3ccc4c(c3)NCCO4)ccn2)ccc1C(N)=O [Example 69, 4-(4-((3,4-dihydro-2H-benzo[b][1,4]oxazin-6-yl)oxy)pyridin-2-yl)-2-methylbenzamide] | < 25 nM | 119% | –
CCc1cc(-c2cc(Oc3ccc4c(C#N)nn(C)c4c3)ccn2)ccc1C(N)=O [Example 48, 4-(4-((3-cyano-1-methyl-1H-indazol-6-yl)oxy)pyridin-2-yl)-2-ethylbenzamide] | 101 to 1000 nM | 118% | –
Cc1cc(-c2cccc(Oc3ccc4cnn(C)c4c3)n2)ccc1C(N)=O [Example 9, 2-methyl-4-(6-((1-methyl-1H-indazol-6-yl)oxy)pyridin-2-yl)benzamide] | 1000 to 2000 nM | 91% | –
Cc1cc(-c2cc(Oc3ccc4c(c3)OCO4)ccn2)ccc1C(N)=O [Example 85, 4-(4-(benzo[d][1,3]dioxol-5-yloxy)pyridin-2-yl)-2-methylbenzamide] | 101 to 1000 nM | 106% | –
CCc1cc(-c2cc(Oc3ccc4c(C(F)(F)F)nn(C)c4c3)ccn2)ccc1C(=O)NC [Example 64, 2-ethyl-N-methyl-4-(4-((1-methyl-3-(trifluoromethyl)-1H-indazol-6-yl)oxy)pyridin-2-yl)benzamide] | 101 to 1000 nM | 81% | –
Cc1cc(-c2cc(Oc3ccc4cnccc4c3)ccn2)ccc1C(N)=O [Example 93, 4-(4-(isoquinolin-6-yloxy)pyridin-2-yl)-2-methylbenzamide] | 101 to 1000 nM | 118% | –
Cc1cc(-c2cc(Oc3cnc4ccc(F)cc4c3)ccn2)ccc1C(N)=O [Example 105, 4-(4-((6-fluoroquinolin-3-yl)oxy)pyridin-2-yl)-2-methylbenzamide] | 101 to 1000 nM | 51% | –
Cc1cc(-c2cc(Oc3ccc4c(N)nn(C)c4c3)ccn2)ccc1C(N)=O [Example 49, 4-(4-((3-amino-1-methyl-1H-indazol-6-yl)oxy)pyridin-2-yl)-2-methylbenzamide] | 101 to 1000 nM | 53% | –
CNc1cc(-c2cc(Oc3ccc4c(C)nn(C)c4c3)ccn2)ccc1C(N)=O [Example 35, 4-(4-((1,3-dimethyl-1H-indazol-6-yl)oxy)pyridin-2-yl)-2-(methylamino)benzamide] | 101 to 1000 nM | 85% | –
Cn1ncc2ccc(Oc3ccnc(-c4ccc(C(N)=O)c(C(F)(F)F)c4)c3)cc21 [Example 47, 4-(4-((1-methyl-1H-indazol-6-yl)oxy)pyridin-2-yl)-2-(trifluoromethyl)benzamide] | 101 to 1000 nM | 88% | –
Cc1cc(-c2cc(Oc3ccc4ncc(Cl)cc4c3)ccn2)ccc1C(N)=O [Example 99, 4-(4-((3-chloroquinolin-6-yl)oxy)pyridin-2-yl)-2-methylbenzamide] | 101 to 1000 nM | 138% | –
CCc1cc(-c2cc(Oc3cnc4c(C)nn(C)c4c3)cc3nccn23)ccc1C(N)=O [Example 81, 4-(7-((1,3-dimethyl-1H-pyrazolo[4,3-b]pyridin-6-yl)oxy)imidazo[1,2-a]pyridin-5-yl)-2-ethylbenzamide] | 101 to 1000 nM | 76% | –
CCc1cc(-c2cc(Oc3ccc4c(c3)c(C)nn4C)ccn2)ccc1C(N)=O [Example 57, 4-(4-((1,3-dimethyl-1H-indazol-5-yl)oxy)pyridin-2-yl)-2-ethylbenzamide] | 25 to 100 nM | 104% | –
Cc1cc(-c2cc(Oc3cc(F)c4ncccc4c3)ccn2)ccc1C(N)=O [Example 98, 4-(4-((8-fluoroquinolin-6-yl)oxy)pyridin-2-yl)-2-methylbenzamide] | 101 to 1000 nM | 120% | –
NC(=O)c1ccc(-c2cc(Oc3ccc4ccncc4c3)ccn2)cc1Cl [Example 80, 2-chloro-4-(4-(isoquinolin-7-yloxy)pyridin-2-yl)benzamide] | 101 to 1000 nM | 54% | –
